From patent publication US11730759B1, “Sulfasalazine-loaded zinc oxide nanoparticles for the treatment of ulcerative colitis” (priority 2023, dated 2023)

Test system: ulcerative colitis (UC) rats
Format: in vivo
Settings: sulfasalazine 100 mg/kg P.O., loaded ZnONPs 100 mg/kg P.O. containing 12.2 mg sulfasalazine/kg
Procedure: Forty male albino rats were randomly divided into four groups (n=10 rats), with all groups were treated for 7 days, as follows:
Group 1: Rats received saline daily for 21 consecutive days by rectal catheter and served as the normal control group (negative control).
Group 2: The disease group received 1 ml acetic acid 3% for three days and served as the ulcerative colitis (UC) control group (positive control).
Group 3: In the standard group, rats received free sulfasalazine (100 mg/kg; P.O. i.e., about 20 mg/rat 200 g) after induction of UC by acetic acid 3% as in group 2.
Group 4: The treatment group, where UC rats received the dose of ZnONPs loaded sulfasalazine (100 mg/kg; P.O. of the ZnONPs) containing 12.2 mg sulfasalazine/kg; P.O.
Markers estimated: • Macroscopic examination of colonic mucosa. • Inflammatory mediators such as tumor necrosis factor-α (TNF-α), interleukin 1beta (IL 1B), malondialdehyde (MBA), reduced glutathione (GSH), superoxide dismutase (SOD), caspase-1, and cyclooxygenase-2 (COX2). • Inflammatory mediators are estimated by ELIZA.

O=C(O)c1cc(/N=N/c2ccc(S(=O)(=O)Nc3ccccn3)cc2)ccc1O [sulfasalazine]
overall effect on ulcerative colitis (inflammatory mediators, healing) relative to other treatments: lower than that observed for Group 4
